Laboratory results as given in patent US20160083357A1, “NOVEL TETRAZOLONE DERIVATIVES” (Hoffmann-La Roche Inc., priority 2013, published 2016).
Like-named read-outs stand apart in the source and are kept apart here.

What was measured:
human CB1 receptors = biological target: T1, human CB1 receptors (Homo sapiens, UniProt P21554); experiment: cAMP assay, human CB1; type: cell-based
T1 construct: expressed in transfected cells; host or cells: CHO cells
Description: (§1) CHO cells expressing human CB1 or CB2 receptors are seeded 17-24 hours prior to the experiment 50.000 cells per well in a black 96 well plate with flat clear bottom (Corning Costar #3904) in DMEM (Invitrogen No. 31331), lx HT supplement, with 10% fetal calf serum and incubated at 5% CO2 and 37° C. in a humidified incubator. The growth medium was exchanged with Krebs Ringer Bicarbonate buffer with 1 mM IBMX and incubated at 30° C. for 30 min. Compounds were added to a final assay volume of 100 μl and incubated for 30 min at 30° C. Using the cAMP-Nano-TRF detection kit the assay (Roche Diagnostics) was stopped by the addition of 50 μl lysis reagent (Tris, NaCl, 1.5% Triton X100, 2.5% NP40, 10% NaN3) and 50 μl detection solutions (20 μM mAb Alexa700-cAMP 1:1, and 48 μM Ruthenium-2-AHA-cAMP) and shaken for 2 h at room temperature. The time-resolved energy transfer is measured by a TRF reader (Evotec Technologies GmbH), equipped with a ND:YAG laser as excitation source. The plate is measured twice with the excitation at 355 nm and at the emission with a delay of 100 ns and a gate of 100 ns, total exposure time 10 s at 730 (bandwidth 30 nm) or 645 nm (bandwidth 75 nm), respectively. The FRET signal is calculated as follows: FRET=T730-Alexa730-P(T645-B645) with P=Ru730-B730/Ru645-B645, where T730 is the test well measured at 730 nM, T645 is the test well measured at 645 nm, B730 and B645 are the buffer controls at 730 nm and 645 nm, respectively. cAMP content is determined from the function of a standard curve spanning from 10 μM to 0.13 nM cAMP.
(§2) EC50 values were determined using Activity Base analysis (ID Business Solution, Limited). The EC50 values for a wide range of cannabinoid agonists generated from this assay were in agreement with the values published in the scientific literature.

human CB2 receptors = biological target: T2, human CB2 receptors (Homo sapiens, UniProt P34972); experiment: cAMP assay, human CB2; type: cell-based
T2 construct: expressed in transfected cells; host or cells: CHO cells
T2 sequence (P34972 whole entry): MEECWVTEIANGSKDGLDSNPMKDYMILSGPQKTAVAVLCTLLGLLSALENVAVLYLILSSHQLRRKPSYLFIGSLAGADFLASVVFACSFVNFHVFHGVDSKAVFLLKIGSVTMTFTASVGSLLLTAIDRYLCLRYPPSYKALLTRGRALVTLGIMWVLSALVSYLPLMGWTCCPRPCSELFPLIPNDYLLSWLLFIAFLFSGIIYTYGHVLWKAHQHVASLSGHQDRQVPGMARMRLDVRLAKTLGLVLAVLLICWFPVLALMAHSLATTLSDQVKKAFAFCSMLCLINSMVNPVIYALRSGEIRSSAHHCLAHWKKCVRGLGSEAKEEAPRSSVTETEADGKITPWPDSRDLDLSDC
Description: as §1, §2

[1] = functional cAMP assay, CHO cells expressing human CB1, read-out: Ec50: CB1 - hu cAMP
[2] = functional cAMP assay, CHO cells expressing human CB2, read-out: Ec50: CB2 - hu cAMP

T1 sequence (P21554 whole entry): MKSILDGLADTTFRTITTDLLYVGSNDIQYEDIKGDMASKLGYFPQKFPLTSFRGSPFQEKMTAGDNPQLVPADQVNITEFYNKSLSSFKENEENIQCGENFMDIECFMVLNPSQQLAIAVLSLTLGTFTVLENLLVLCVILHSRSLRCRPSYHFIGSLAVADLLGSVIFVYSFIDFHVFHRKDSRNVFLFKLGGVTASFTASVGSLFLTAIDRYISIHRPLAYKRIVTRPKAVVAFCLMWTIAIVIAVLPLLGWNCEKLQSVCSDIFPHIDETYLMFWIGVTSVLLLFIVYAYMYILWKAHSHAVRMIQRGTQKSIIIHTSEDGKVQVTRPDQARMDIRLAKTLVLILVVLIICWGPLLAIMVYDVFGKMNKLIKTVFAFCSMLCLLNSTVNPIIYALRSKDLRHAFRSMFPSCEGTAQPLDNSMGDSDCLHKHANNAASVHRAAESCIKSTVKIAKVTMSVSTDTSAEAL

Compound | EC50 (human CB1 receptors; [1]) | EC50 (human CB2 receptors; [2]) | EC50 (human CB1 receptors) | EC50 (human CB2 receptors)
O=C(CN1CCN(C(=O)n2nnn(-c3cccc(F)c3)c2=O)CC1)N1CCCC1 [Example 27, 1-(3-Fluoro-phenyl)-4-[4-(2-oxo-2-pyrrolidin-1-yl-ethyl)-piperazine-1-carbonyl]-1,4-dihydro-tetrazol-5-one] | > 10000 nM | 7.1 nM |  | 
O=C(N1CCOCC1)n1nnn(-c2ccc(Cl)cc2)c1=O [Example 103, 1-(4-Chloro-phenyl)-4-(morpholine-4-carbonyl)-1,4-dihydro-tetrazol-5-one] | > 10000 nM | 4.5 nM |  | 
CC1(C)CCN(C(=O)n2nnn(-c3cccc(Cl)c3)c2=O)CC1 [Example 77, 1-(3-Chloro-phenyl)-4-(4,4-dimethyl-piperidine-1-carbonyl)-1,4-dihydro-tetrazol-5-one] | > 10000 nM | 0.6 nM |  | 
CCN(CCOC)C(=O)n1nnn(-c2cccc(F)c2)c1=O [Example 7, 4-(3-Fluoro-phenyl)-5-oxo-4,5-dihydro-tetrazole-1-carboxylic acid ethyl-(2-methoxy-ethyl)-amide] |  |  | > 10000 nM | 2.7 nM
CC(=O)N[C@@H]1CCN(C(=O)n2nnn(-c3cccc(OC(F)(F)F)c3)c2=O)C1 [Example 66, N—{(R)-1-[5-Oxo-4-(3-trifluoromethoxy-phenyl)-4,5-dihydro-tetrazole-1-carbonyl]-pyrrolidin-3-yl}-acetamide] | > 10000 nM | 20.4 nM |  | 
COCC1CCCCN1C(=O)n1nnn(-c2cccc(F)c2)c1=O (centres unmarked) [Example 34, 1-(3-Fluoro-phenyl)-4-(2-methoxymethyl-piperidine-1-carbonyl)-1,4-dihydro-tetrazol-5-one] | > 10000 nM | 19 nM |  | 
O=C(CN1CCN(C(=O)n2nnn(-c3cccc(Cl)c3)c2=O)CC1)N1CCOCC1 [Example 89, 1-(3-Chloro-phenyl)-4-[4-(2-morpholin-4-yl-2-oxo-ethyl)-piperazine-1-carbonyl]-1,4-dihydro-tetrazol-5-one] | > 10000 nM | 16.9 nM |  | 
O=C(N1CCOCC1)n1nnn(-c2ccc(F)c(F)c2)c1=O [Example 125, 1-(3,4-difluorophenyl)-4-(morpholine-4-carbonyl)tetrazol-5-one] | > 10000 nM | 7 nM |  | 
CC(=O)N[C@H]1CCN(C(=O)n2nnn(-c3cccc(Cl)c3)c2=O)C1 [Example 68, N—{(S)-1-[4-(3-Chloro-phenyl)-5-oxo-4,5-dihydro-tetrazole-1-carbonyl]-pyrrolidin-3-yl}-acetamide] | > 10000 nM | 39.5 nM |  | 
CC(C(=O)N1CCCC1)N1CCN(C(=O)n2nnn(-c3cccc(Cl)c3)c2=O)CC1 (centres unmarked) [Example 116, 1-(3-Chloro-phenyl)-4-[4-(1-methyl-2-oxo-2-pyrrolidin-1-yl-ethyl)-piperazine-1-carbonyl]-1,4-dihydro-tetrazol-5-one] | > 10000 nM | 122 nM |  | 
CC[C@H](C)[C@@H](C(=O)OC)N(C)C(=O)n1nnn(-c2cccc(F)c2)c1=O [Example 13, (2S,3S)-2-{[4-(3-Fluoro-phenyl)-5-oxo-4,5-dihydro-tetrazole-1-carbonyl]-methyl-amino}-3-methyl-pentanoic acid methyl ester] | > 10000 nM | 11.2 nM |  | 
Cn1nccc1C1CCCN1C(=O)n1nnn(-c2cccc(F)c2)c1=O (centres unmarked) [Example 18, 1-(3-Fluoro-phenyl)-4-[2-(2-methyl-2H-pyrazol-3-yl)-pyrrolidine-1-carbonyl]-1,4-dihydro-tetrazol-5-one] | > 10000 nM | 219 nM |  | 
C[C@@H]1CN(C(=O)n2nnn(-c3cccc(F)c3)c2=O)C[C@H](C)O1 [Example 59, 1-((2S,6R)-2,6-Dimethyl-morpholine-4-carbonyl)-4-(3-fluoro-phenyl)-1,4-dihydro-tetrazol-5-one] | > 10000 nM | 988 nM |  | 
COCCNC(=O)n1nnn(-c2cccc(F)c2)c1=O [Example 110, 4-(3-Fluoro-phenyl)-5-oxo-4,5-dihydro-tetrazole-1-carboxylic acid (2-methoxy-ethyl)-amide] | > 10000 nM | 968 nM |  | 
CCNC(=O)CN1CCN(C(=O)n2nnn(-c3ccc(Cl)cc3)c2=O)CC1 [Example 106, 2-{4-[4-(4-Chloro-phenyl)-5-oxo-4,5-dihydro-tetrazole-1-carbonyl]-piperazin-1-yl}-N-ethyl-acetamide] | > 10000 nM | 10.6 nM |  | 
O=C(N1CCOCC1)n1nnn(-c2c(F)cccc2F)c1=O [Example 122, 1-(2,6-difluorophenyl)-4-(morpholine-4-carbonyl)tetrazol-5-one] |  |  | > 10000 nM | 19 nM
CC1(C)CCN(C(=O)n2nnn(-c3cccc(F)c3)c2=O)C1 [Example 47, 1-(3,3-Dimethyl-pyrrolidine-1-carbonyl)-4-(3-fluoro-phenyl)-1,4-dihydro-tetrazol-5-one] | > 10000 nM | 2.7 nM |  | 
Cc1cc(C2CCCN2C(=O)n2nnn(-c3cccc(OC(F)(F)F)c3)c2=O)on1 (centres unmarked) [Example 75, 1-[2-(3-Methyl-isoxazol-5-yl)-pyrrolidine-1-carbonyl]-4-(3-trifluoromethoxy-phenyl)-1,4-dihydro-tetrazol-5-one] | > 10000 nM | 28.5 nM |  | 
COC(=O)C1(NC(=O)OC(C)(C)C)CCN(C(=O)n2nnn(-c3cccc(F)c3)c2=O)CC1 [Example 62, 4-tert-Butoxycarbonylamino-1-[4-(3-fluoro-phenyl)-5-oxo-4,5-dihydro-tetrazole-1-carbonyl]-piperidine-4-carboxylic acid methyl ester] | > 10000 nM | 61.4 nM |  | 
COCCCN(C)C(=O)n1nnn(-c2cccc(Cl)c2)c1=O [Example 86, 4-(3-Chloro-phenyl)-5-oxo-4,5-dihydro-tetrazole-1-carboxylic acid (3-methoxy-propyl)-methyl-amide] | > 10000 nM | 1 nM |  | 
CC(C)(C)OC(=O)N1CCC(n2nnn(-c3cccc(F)c3)c2=O)CC1 [Example 15, 4-[4-(3-Fluoro-phenyl)-5-oxo-4,5-dihydro-tetrazol-1-yl]-piperidine-1-carboxylic acid tert-butyl ester] | > 10000 nM | 3000 nM |  | 
O=C(CN1CCN(C(=O)n2nnn(-c3ccc(Cl)cc3)c2=O)CC1)N1CCCC1 [Example 97, 1-(4-Chloro-phenyl)-4-[4-(2-oxo-2-pyrrolidin-1-yl-ethyl)-piperazine-1-carbonyl]-1,4-dihydro-tetrazol-5-one] | > 10000 nM | 12.9 nM |  | 
CCOCCN(CC)C(=O)n1nnn(-c2cccc(Cl)c2)c1=O [Example 98, 4-(3-Chloro-phenyl)-5-oxo-4,5-dihydro-tetrazole-1-carboxylic acid (2-ethoxy-ethyl)-ethyl-amide] |  |  | > 10000 nM | 1.8 nM
Cc1cc(C2CCCN2C(=O)n2nnn(-c3ccc(Cl)cc3)c2=O)on1 (centres unmarked) [Example 76, 1-(4-Chloro-phenyl)-4-[2-(3-methyl-isoxazol-5-yl)-pyrrolidine-1-carbonyl]-1,4-dihydro-tetrazol-5-one] | > 10000 nM | 7.4 nM |  | 
CC(=O)N(C)C1CCN(C(=O)n2nnn(-c3cccc(F)c3)c2=O)C1 (centres unmarked) [Example 49, N-{1-[4-(3-Fluoro-phenyl)-5-oxo-4,5-dihydro-tetrazole-1-carbonyl]-pyrrolidin-3-yl}-N-methyl-acetamide] | > 10000 nM | 14.3 nM |  | 
